Results published in patent publication US20060128718A1, “Tetrahydropyridazine derivatives having a pesticidal effect” (priority 2002, published 2006).
Where two headings read alike, the source gives them in different places.

What was measured:
[1] = logP determination by HPLC on reversed phase column (C 18), EEC directive 79/831; format: physicochemical; details: reversed phase HPLC column (C 18)
Description: Determine the logP values given in the table as specified in EEC directive 79/831 ex V.A8 using HPLC (high performance liquid chromatography) in a reversed e column (C 18). Temperature: 43° C.
(a) eluents for determination in the acid range: 0.1% aqueous phosphoric acid, acetonitrile, linear gradient of 10% acetonitrile to 90% acetonitrile—corresponding measurement results are marked with an a) in Table 1.
(b) eluents for determination in the neutral range: 0.01-molar aqueous phosphate buffer solution, acetonitrile, linear gradient of 10% acetonitrile to 90% acetonitrile—corresponding measurement results are marked with a b) [sic] in Table 1.
Calibration is done using unbranched alkane-2-ones (with 3 to 16 carbon atoms), whose logP values are known (determination of the logP values using the retention times via linear interpolation between two sequential ketones).

[2] = tested on: Heliothis armigera larvae; test: Heliothis armigera test (soybean sprouts dipped, larvae); format: in vivo
Source text: Heliothis armigera Test To prepare one of the appropriate active ingredient preparations, mix 1 part by weight of the active ingredient with the indicated amount of solvent and emulsifier and dilute the concentrate with emulsifier-containing water to the desired concentration. Treat soybean sprouts (Glycine max) by dipping into the active ingredient preparation of the desired concentration and infesting with Heliothis armigera larvae while the leaves are still damp. After the desired time, determine the death rate in %. For these purposes 100% means that all the larvae on the leaves were killed; 0% means that no larvae were killed.

[3] = tested on: larvae of the mustard beetle (Phaedon cochleariae); test: Phaedon larvae test (cabbage leaves dipped); format: in vivo
Source text: Phaedon Larvae Test To prepare one of the appropriate active ingredient preparations, mix 1 part by weight of the active ingredient with the indicated amount of solvent and emulsifier and dilute the concentrate with emulsifier-containing water to the desired concentration. Treat cabbage leaves (Brassica oleracea) by dipping into the active ingredient preparation of the desired concentration and infesting with larvae of the mustard beetle (Phaedon cochleariae) while the leaves are still damp. After the desired time, determine the death rate in %. For this purpose 100% means that all the beetle larvae on the leaves were killed; 0% means that no beetle larvae were killed.

[4] = tested on: larvae of the diamondback moth (Plutella xylostella); test: Plutella test (cabbage leaves dipped); format: in vivo
Source text: (§1) Plutella Test To prepare one of the appropriate active ingredient preparations, mix 1 part by weight of the active ingredient with the indicated amount of solvent and emulsifier and dilute the concentrate with emulsifier-containing water to the desired concentration. Treat cabbage leaves (Brassica oleracea) by dipping into the active ingredient preparation of the desired concentration and infesting with larvae of the diamondback moth (Plutella xylostella) while the leaves are still damp. After the desired time, determine the death rate in %. For these purposes 100% means that all the larvae on the leaves were killed; 0% means that no larvae were killed.

[5] = tested on: larvae of the beet armyworm (Spodoptera exigua); test: Spodotera exigua test (cabbage leaves dipped); format: in vivo
Source text: as §1, with “Spodotera exigua” for “Plutella”, “infesting them” for “infesting”, “beet armyworm (Spodoptera exigua)” for “diamondback moth (Plutella xylostella)”

[6] = tested on: larvae of the fall armyworm (Spodoptera frugiperda); test: Spodoptera frugiperda test (cabbage leaves dipped); format: in vivo
Source text: as §1, with “Spodoptera frugiperda” for “Plutella”, “infesting them” for “infesting”, “fall armyworm (Spodoptera frugiperda)” for “diamondback moth (Plutella xylostella)”

[7] = 500 ppm active ingredient, after 7d, cabbage leaves

Row | Compound | chromatographic logP ([1]; pH 2.3, read-out: logp (pH: 2.3)) | Death rate in % after 7d ([2]; 500 ppm active ingredient, after 7d, soybean sprouts) [%] | efficacy (in words) ([2]; Heliothis armigera test) | Death rate in % after 7d [3, 7] [%] | efficacy (in words) ([3]; Phaedon larvae test) | Death rate in % after 7d [4, 7] [%] | efficacy (in words) ([4]; Plutella test) | Death rate in % after 7d [5, 7] [%] | efficacy (in words) ([5]; Spodotera exigua test) | Death rate in % after 7d [6, 7] [%] | efficacy (in words) ([6]; Spodoptera frugiperda test) | chromatographic logP ([1]; pH 2, pH2)
1 | N#CCN(C(=O)N1CCC(n2cc(Cl)cn2)C(c2cccc(C(F)(F)F)c2)=N1)c1ccc(OC(F)(F)F)cc1 (stereo not drawn) [Example 1, N-cyanomethyl-4-(4-chloropyrazole-1-yl)-1-(4-trifluoromethoxy-phenylamino)-3-(trifluoromethyl-phenyl)-carbonyl-1,4,5,6-tetrahydropyridazine] | 4.22 | 100 | good efficacy | 100 | good efficacy | 100 | good efficacy | 100 | good efficacy | 100 | good efficacy | 
2 | N#Cc1cccc(C(=O)C(Br)CCCl)c1 (stereo not drawn) [Example (X-1), 3′-cyano-2-bromo-4-chlorobutyrophenone] |  |  |  |  |  |  |  |  |  |  |  | 3.09
